This note sets out measurements from publication PMC7217877, “N-AS-triggered SPMs are direct regulators of microglia in a model of Alzheimer’s disease” (Nature Communications, 2020).

Values joined by “and” are separate entries in the source; they are usually repeats but may differ in a detail not shown here. Equal values may be shown once.

One experiment concerns microglia. Briefly: western blotting for ac-S565 and total COX2 in primary cells. The experiment is classed as cell-based, C57BL/6 mice. On the set-up: ac-S565, western blotting (Fig 3h): scale not given here. As to conditions: replicates. How it is done:
To confirm the generation and roles of N-AS in neurons, cells from E18 C57BL/6 mice were prepared as previously described. Cortices were dissected and then dissociated followed by incubation in papain (Worthington) at 37 °C for 15 min. Neurons were plated on poly-L-lysine-coated coverslips with neuronal culture medium, serum-free Neurobasal medium (Gibco) containing 2% B27 supplements (Gibco), 1 mM Glutamax supplement (Gibco), and 100 U ml^−1 streptomycin/ 100 U ml^−1 penicillin (Gibco) at 37 °C in a humidified atmosphere of 5% CO2. Aβ 1–42 (10 μM, 24 h, Invitrogen, 03112) was exposed to neurons and the cells were analyzed for the generation and roles of N-AS. Primary astrocyte cultures were prepared from C57BL/6 mice as described previously. In brief, after removal of the meninges, postnatal day 7 (P7) mouse brain tissues were minced and incubated in a rocking water bath at 37 °C for 30 min in the presence of 0.25% trypsin-EDTA (Sigma-Aldrich). Enzyme-digested dissociated cells were triturated with astrocyte-specific medium (DMEM/F12 containing 10% FBS and 1% penicillin-streptomycin) and centrifuged at 155×g for 8 min. The pellet was resuspended in astrocyte-specific medium and passed through a 40-μm cell strainer. The filtrate was allowed pre-adherence for 30 min to remove any contamination from fibroblasts before being seeded in dishes and the addition of astrocyte-specific medium. To split the cells, Ara-C was added to the dishes and they were then placed in a heated shaker for 6–7 h. The medium was removed from the dishes, and trypsin-EDTA was added to the dish and incubated at 37 °C for 5–10 min. After centrifugation at 155×g for 8 min, the supernatant was removed, and the astrocytes were maintained in culture by feeding […] with astrocyte-specific medium. Primary microglia cultures were prepared from C57BL/6 mice as described previously. In brief, the cortices of 2-months-old mice were minced in Hibernate A (Gibco)/B27 supplements (Gibco) medium and dissociated using papain (Worthington) solution. After tissue trituration, cells were separated by Optiprep (Sigma-Aldrich) density gradient centrifugation. Microglia were plated with microglia-specific medium (DMEM/F12 containing 10% FBS and 1% penicillin-streptomycin). The immortalized human microglia (Applied Biologics Materials, T0251) were cultured in PriGrow III (Applied Biologics Materials, TM003) (supplemented with 10% FBS and 1% penicillin-streptomycin) at 37 °C in a humidified atmosphere of 5% CO2. In order to assess the clinical importance of N-AS in AD microglia, Aβ 1–42 (50 μM, 24 h, Invitrogen, 03112) was exposed to human microglia before treated with zileuton (50 μM, 24 h, Sigma-Aldrich, Z4277). The human microglia treated with Aβ 1–42 and/or zileuton was incubated with N-AS (2.5 μM, 2 h, Sigma-Aldrich, 01912), and were analyzed for the generation and roles of N-AS.
Samples were lysed in RIPA buffer (Cell signaling Technologies), then subjected to SDS-PAGE and transferred to a nitrocellulose membrane. Membranes were blocked with 5% milk, incubated with primary antibody and then incubated with the appropriate horseradish peroxidase-conjugated secondary antibody. […] We performed densitometric quantification using the ImageJ software (National Institutes of Health). Images have been cropped for presentation.
In general terms: A western blot detects proteins with antibodies after separation by electrophoresis.

The test system of experiment [1] is immortalized human microglia. Briefly: LM-SPM profile of human microglia (LC-MS/MS, Supplementary Table 3, Fig 6d). The note with it: for 15R-LxA4 / RvD1 / RvE1: human microglia, sFig 6d; for 11-HEPE in human microglia / 11-HETE in human microglia / 13-HDHA in human microglia / 15-HEPE in human microglia / 15-HETE in human microglia / 15R-LXA4 in human microglia / 17-HDHA in human microglia / 18-HEPE in human microglia / PGE3/PGD3 in human microglia / PGH2/PGE2 in human microglia / RvD1 in human microglia / RvE1 in human microglia: mean±s.e.m. Also noted: 15R-LxA4 / RvE1 / RvD1: unit not given here. The experiment is classed as cell-based.

The next experiment concerns neuron. Briefly: western blotting for ac-S565 and total COX2 in primary cells. The note with it: replicates. The experiment is classed as cell-based, C57BL/6 mice.

Turning to `CC(=O)SCCNC(=O)CCNC(=O)[C@H](O)C(C)(C)COP(=O)(O)OP(=O)(O)OC[C@H]1O[C@@H](n2cnc3c(N)ncnc32)[C@H](O)[C@@H]1OP(=O)(O)O` [Acetyl-CoA, acetyl-CoA], the “ac-S565, western blotting (Fig 3h)” value in the experiment with microglia (Ab 10mM + supplement) is 1.293 and 1.204 and 1.322 and 1.2834. Besides, in experiment [1] (Aβ 50 µM +), the 15R-LxA4 was 29.8592 and 28.6097 and 30.6248 and 29.0936 and 30.1012; the RvD1 was 2.566 and 2.828 and 2.839 and 2.697 and 2.833 and 2.768; the RvE1 is 14.9946 and 13.574 and 15.0361 and 14.2843 and 14.305. Further, the “ac-S565, western blotting (Fig 3h)” value with neuron (Ab 10mM + supplement) was 0.4974 and 0.4784 and 0.4801 and 0.5239.

Turning to “Ab: Aβ 1–42 (Invitrogen, 03112) used to induce an AD environment in cells”, the “ac-S565, western blotting (Fig 3h)” value in the experiment on microglia (Ab 10mM, no supplement) was 0.2316 and 0.2169 and 0.2234 and 0.1511. For the same molecule, the “ac-S565 / total COX2, western blotting (Fig 3b)” value with microglia (Ab 10mM) was 0.3907 and 0.4255 and 0.3575 and 0.3077 and 0.4081 and 0.3915. Further, in experiment [1] (Aβ 50 µM alone), the “11-HEPE in human microglia” value stood at 490.2±2.4 ng/ml*106cell, the “11-HETE in human microglia” value came to 174.9±2.0 ng/ml*106cell, the “13-HDHA in human microglia” value amounted to 128.2±1.8 ng/ml*106cell and the “15-HEPE in human microglia” value worked out at 272.1±7.3 ng/ml*106cell. Also, in experiment [1] (Aβ 50 µM alone), the “15-HETE in human microglia” value is given as 564.3±4.4 ng/ml*106cell, the “15R-LXA4 in human microglia” value is listed as 0.03±0.0 ng/ml*106cell, the “17-HDHA in human microglia” value is 561.8±2.7 ng/ml*106cell and the “18-HEPE in human microglia” value is on record as 1515.3±10.4 ng/ml*106cell. Further, in experiment [1] (Aβ 50 µM alone), the “PGE3/PGD3 in human microglia” value is recorded as 163.9±2.5 ng/ml*106cell, the “PGH2/PGE2 in human microglia” value came out at 78.7±0.8 ng/ml*106cell, the “RvD1 in human microglia” value was 0.01±0.0 ng/ml*106cell and the “RvE1 in human microglia” value came out at 0.01±0.0 ng/ml*106cell. In addition, in the experiment with neuron (Ab 10mM, no supplement), the “ac-S565, western blotting (Fig 3h)” value was 0.4287 and 0.5828 and 0.4634 and 0.6503. In addition, in the experiment with neuron (Ab 10mM), the “ac-S565 / total COX2, western blotting (Fig 3b)” value is 0.7374 and 0.6807 and 0.7791 and 0.4902 and 0.709 and 0.7299.

On to `CCCCCCCCCCCCC/C=C/[C@@H](O)[C@H](CO)NC(C)=O` [N-AS, N-((2S,3R,E)-1,3-Dihydroxyoctadec-4-en-2-yl)acetamide], for which, in the experiment with microglia (Ab 10mM + supplement), the “ac-S565, western blotting (Fig 3h)” value is 1.339 and 1.447 and 1.994 and 1.362. In experiment [1] (Aβ 50 µM + treatment), the “11-HEPE in human microglia” value turned out to be 371.7±4.0 ng/ml*106cell, the “11-HETE in human microglia” value is on record as 148.4±1.9 ng/ml*106cell, the “13-HDHA in human microglia” value is recorded as 133.0±1.8 ng/ml*106cell and the “15-HEPE in human microglia” value is 237.9±3.7 ng/ml*106cell. In addition, in experiment [1] (Aβ 50 µM + treatment), the “15-HETE in human microglia” value worked out at 625.4±1.7 ng/ml*106cell, the “15R-LXA4 in human microglia” value is given as 19.8±0.2 ng/ml*106cell, the “17-HDHA in human microglia” value came to 707.6±8.2 ng/ml*106cell and the “18-HEPE in human microglia” value turned out to be 1763.6±30.4 ng/ml*106cell. For the same molecule, in experiment [1] (Aβ 50 µM + treatment), the “PGE3/PGD3 in human microglia” value came to 132.9±2.0 ng/ml*106cell, the “PGH2/PGE2 in human microglia” value is given as 95.7±0.9 ng/ml*106cell, the “RvD1 in human microglia” value is 2.13±0.02 ng/ml*106cell and the “RvE1 in human microglia” value is 8.6±0.3 ng/ml*106cell. Also, the “SPM production, in words” value in experiment [1] (Aβ-treated human microglia + N-AS) is given as “improved SPM production”. In experiment [1] (Control (no Aβ) + treatment), the “11-HEPE in human microglia” value stood at 451.8±4.6 ng/ml*106cell, the “11-HETE in human microglia” value was 161.8±0.9 ng/ml*106cell, the “13-HDHA in human microglia” value came to 133.9±2.2 ng/ml*106cell and the “15-HEPE in human microglia” value is on record as 284.1±4.0 ng/ml*106cell. In experiment [1] (Control (no Aβ) + treatment), the “15-HETE in human microglia” value stood at 625.5±6.8 ng/ml*106cell, the “15R-LXA4 in human microglia” value was found to be 28.7±0.3 ng/ml*106cell, the “17-HDHA in human microglia” value was 633.8±9.2 ng/ml*106cell and the “18-HEPE in human microglia” value is listed as 1636.9±19.7 ng/ml*106cell. In experiment [1] (Control (no Aβ) + treatment), the “PGE3/PGD3 in human microglia” value was found to be 113.1±1.6 ng/ml*106cell, the “PGH2/PGE2 in human microglia” value is 105.8±1.1 ng/ml*106cell, the “RvD1 in human microglia” value came to 2.36±0.02 ng/ml*106cell and the “RvE1 in human microglia” value came to 18.5±0.4 ng/ml*106cell. Further, in experiment [1] (Aβ 50 µM +), the 15R-LxA4 is 20.003 and 19.3859 and 19.5943 and 20.5159 and 19.4901 and 20.0551; the RvD1 was 2.139 and 2.0589 and 2.21 and 2.099 and 2.134 and 2.154; the RvE1 is 9.835 and 7.339 and 9.039 and 8.587 and 8.189 and 8.813. In addition, in experiment [1] (Aβ 50 µM -), the 15R-LxA4 is 29.0008 and 28.9046 and 27.6099 and 29.7445 and 28.2572 and 28.6772; the RvD1 is 2.289 and 2.353 and 2.443 and 2.321 and 2.398 and 2.382; the RvE1 was 19.7237 and 16.8195 and 19.2333 and 18.2716 and 18.0264 and 18.7524. Further, the “ac-S565, western blotting (Fig 3h)” value in the experiment on neuron (Ab 10mM + supplement) was 1.382 and 1.374 (2×) and 1.247.

With `CCCCCCCCCCCCC/C=C/[C@@H](O)[C@@H](N)CO` [Sph, sphingosine], the “ac-S565, western blotting (Fig 3h)” value in the experiment on microglia (Ab 10mM + supplement) was 0.2446 and 0.241 and 0.1599 and 0.2328; in the experiment on neuron (Ab 10mM + supplement), 0.6309 and 0.6553 and 0.6332 and 0.656.

B1: Sphk1: purified sphingosine kinase1 enzyme (Cayman, 10348) supplemented to cell lysates (protein, UniProt Q9NYA1 1-384, looked up)
Sphingosine kinase 1: MDPAGGPRGVLPRPCRVLVLLNPRGGKGKALQLFRSHVQPLLAEAEISFTLMLTERRNHARELVRSEELGRWDALVVMSGDGLMHEVVNGLMERPDWETAIQKPLCSLPAGSGNALAASLNHYAGYEQVTNEDLLTNCTLLLCRRLLSPMNLLSLHTASGLRLFSVLSLAWGFIADVDLESEKYRRLGEMRFTLGTFLRLAALRTYRGRLAYLPVGRVGSKTPASPVVVQQGPVDAHLVPLEEPVPSHWTVVPDEDFVLVLALLHSHLGSEMFAAPMGRCAAGVMHLFYVRAGVSRAMLLRLFLAMEKGRHMEYECPYLVYVPVVAFRLEPKDGKGVFAVDGELMVSEAVQGQVHPNYFWMVSGCVEPPPSWKPQQMPPPEEPL
As for B1, the “ac-S565, western blotting (Fig 3h)” value in the experiment with microglia (Ab 10mM + supplement) is 0.2731 and 0.2264 and 0.2811 and 0.241; with neuron (Ab 10mM + supplement), 1.248 and 1.156 and 1.263 and 1.199.
